Measured values published in patent US10000450B2, “N,N-substituted 3-aminopyrrolidine compounds useful as monoamines reuptake inhibitors” (OTSUKA PHARMACEUTICAL CO., LTD., priority 2005, dated 2018).
Where a name gives a salt, the structure may show the parent alone.

Legend:
[1] = target: T1, Dopamine (DA) uptake into rat brain synaptosome (striatum) (Rattus norvegicus, UniProt P23977); experiment: Inhibitory activity on dopamine (DA) uptake into rat brain synaptosome; format: biochemical; conditions: tritium labeled DA 2 nM uptake, 10 min at 37° C., read-out: 50% inhibitory concentration
T1 construct: used as crude synaptosome fraction; from tissue; host or cells: rat (male Wistar) striatum, crude synaptosome fraction
T1 sequence (P23977 whole entry): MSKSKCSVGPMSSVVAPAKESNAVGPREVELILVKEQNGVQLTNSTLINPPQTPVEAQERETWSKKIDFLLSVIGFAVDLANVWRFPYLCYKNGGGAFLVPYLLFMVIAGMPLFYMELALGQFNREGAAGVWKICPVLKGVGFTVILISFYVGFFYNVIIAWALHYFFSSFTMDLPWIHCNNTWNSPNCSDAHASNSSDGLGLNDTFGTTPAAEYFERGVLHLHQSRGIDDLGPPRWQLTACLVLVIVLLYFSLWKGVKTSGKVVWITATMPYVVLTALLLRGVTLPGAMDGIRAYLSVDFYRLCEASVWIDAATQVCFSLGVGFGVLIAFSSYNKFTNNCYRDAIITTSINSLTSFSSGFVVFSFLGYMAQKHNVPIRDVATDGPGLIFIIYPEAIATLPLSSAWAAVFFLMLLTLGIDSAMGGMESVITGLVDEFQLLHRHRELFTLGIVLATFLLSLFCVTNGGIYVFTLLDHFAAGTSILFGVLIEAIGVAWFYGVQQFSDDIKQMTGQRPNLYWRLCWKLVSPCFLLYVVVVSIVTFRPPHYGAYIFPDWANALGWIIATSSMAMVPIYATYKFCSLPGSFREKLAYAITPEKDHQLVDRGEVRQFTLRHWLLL
Procedure: Pharmacological Test 3 Evaluation of Inhibitory Activity of Test Compound on Dopamine (DA) into Rat Brain Synaptosome
(§1) Male Wistar rats were decapitated and the brains were removed and the striata were dissected. The separated striata were homogenized in 20 volumes as weight of 0.32 M sucrose solution by a Potter-type homogenizer. The homogenate was centrifuged at 1000 g at 4° C. for 10 minutes, and the supernatant was then centrifuged at 20000 g at 4° C. for 20 minutes. The pellet was resuspended in incubation buffer (20 mM HEPES buffer (pH 7.4)) containing 10 mM glucose, 145 mM sodium chloride, 4.5 mM potassium chloride, 1.2 mM magnesium chloride, and 1.5 mM calcium chloride) and used as crude synaptosome fraction.
(§2) The uptake reaction mixture was suspended in a final volume of 200 μl containing pargyline (final concentration of 10 μM) and sodium ascorbate (final concentration of 0.2 mg/ml) in each well of 96-well-round-bottom-plate.
(§3) Solvent, unlabeled DA, and serial diluted test compounds were added in each well, and synaptosome fraction of 1/10 volume of the final volume were added. After 10-min preincubation at 37° C., the uptake was initiated by the addition of tritium labeled DA solution (final concentration of 2 nM) at 37° C. The uptake was stopped after 10 minutes by filtration under vacuum through a 96-well glass fiber filter plate. After washing the filter with cold physiological saline and drying up, Microscint-0 (Perkin-Elmer) was added and remained radioactivity on the filter was measured.
(§4) The uptake activity with only solvent was determined as 100%, and the nonspecific uptake activity with unlabeled DA (final concentration of 10 μM) was determined as 0%. The 50% inhibitory concentrations were calculated based on the concentrations of the test compounds and their inhibitory activities.

[2] = target: T2, Serotonin (5-HT) uptake into rat brain synaptosome (frontal cortex) (Rattus norvegicus, UniProt P31652); experiment: Inhibitory activity on serotonin (5-HT) uptake into rat brain synaptosome; format: biochemical; conditions: tritium-labeled 5-HT 8 nM uptake, 10 min at 37° C., read-out: 50% inhibittory concentration
T2 construct: used as crude synaptosome fractions; from tissue; host or cells: rat (male Wistar) frontal cortex, crude synaptosome fraction
T2 sequence (P31652 whole entry): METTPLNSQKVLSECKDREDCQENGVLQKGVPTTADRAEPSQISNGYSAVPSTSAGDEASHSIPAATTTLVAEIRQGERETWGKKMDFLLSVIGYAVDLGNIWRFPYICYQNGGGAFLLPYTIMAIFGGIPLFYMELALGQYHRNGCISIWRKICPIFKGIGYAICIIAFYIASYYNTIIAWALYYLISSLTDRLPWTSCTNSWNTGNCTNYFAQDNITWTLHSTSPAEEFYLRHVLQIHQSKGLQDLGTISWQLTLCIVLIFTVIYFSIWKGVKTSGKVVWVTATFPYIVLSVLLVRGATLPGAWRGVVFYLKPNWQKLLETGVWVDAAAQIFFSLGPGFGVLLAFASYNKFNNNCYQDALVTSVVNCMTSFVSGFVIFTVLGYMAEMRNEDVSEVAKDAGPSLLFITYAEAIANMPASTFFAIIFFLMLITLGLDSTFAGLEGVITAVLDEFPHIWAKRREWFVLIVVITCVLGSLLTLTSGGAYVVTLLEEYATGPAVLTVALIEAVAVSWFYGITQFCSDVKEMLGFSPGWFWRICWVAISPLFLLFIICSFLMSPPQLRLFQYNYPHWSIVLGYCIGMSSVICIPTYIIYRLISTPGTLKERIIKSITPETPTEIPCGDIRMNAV
Procedure: Pharmacological Test 1 Evaluation of Inhibitory Activity of Test Compound on Serotonin (5-HT) Uptake into Rat Brain Synaptosome
as §1, with “frontal cortices” for “striata”, “fractions.” for “fraction.”
as §2
as §3, with “unlabeled 5-HT,” for “unlabeled DA,”, “After a 10 min” for “After 10-min”, “of tritium-labeled 5-HT” for “of tritium labeled DA”, “of 8” for “of 2”, “up, Microscint-O” for “up, Microscint-0”, “was added,” for “was added”
as §4, with “The total uptake activity” for “The uptake activity”, “with unlabeled 5-HT (final concentration” for “with unlabeled DA (final concentration”

[3] = target: T3, Norepinephrine (NE) uptake into rat brain synaptosome (hippocampus) (Rattus norvegicus, UniProt Q63380); experiment: Inhibitory activity on norepinephrine (NE) uptake into rat brain synaptosome; format: biochemical; conditions: tritium-labeled NE 12 nM uptake, 10 min at 37° C., read-out: 50% inhibitory concentration
T3 construct: used as crude synaptosome fraction; from tissue; host or cells: rat (male Wistar) hippocampus, crude synaptosome fraction
T3 sequence (Q63380 1-617): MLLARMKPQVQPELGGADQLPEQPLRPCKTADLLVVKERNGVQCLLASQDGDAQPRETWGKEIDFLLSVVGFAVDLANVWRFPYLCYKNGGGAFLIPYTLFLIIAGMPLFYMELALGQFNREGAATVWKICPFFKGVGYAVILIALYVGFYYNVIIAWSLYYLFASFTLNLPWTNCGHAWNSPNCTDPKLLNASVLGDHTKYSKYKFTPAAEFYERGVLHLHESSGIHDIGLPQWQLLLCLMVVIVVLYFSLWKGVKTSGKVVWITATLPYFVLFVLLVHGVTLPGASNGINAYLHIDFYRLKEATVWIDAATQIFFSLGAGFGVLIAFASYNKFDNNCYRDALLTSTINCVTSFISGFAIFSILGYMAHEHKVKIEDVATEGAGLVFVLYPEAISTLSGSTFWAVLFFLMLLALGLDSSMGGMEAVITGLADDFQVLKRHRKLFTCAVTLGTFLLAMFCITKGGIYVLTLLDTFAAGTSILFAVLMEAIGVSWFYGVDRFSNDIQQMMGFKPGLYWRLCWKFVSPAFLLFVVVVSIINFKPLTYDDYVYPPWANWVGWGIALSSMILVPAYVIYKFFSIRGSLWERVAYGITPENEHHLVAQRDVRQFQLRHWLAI
Procedure: Pharmacological Test 2 Evaluation of Inhibitory Activity of Test Compound on Norepinephrine (NE) Uptake into Rat Brain Synaptosome
as §1, with “hippocampi” for “striata”
The uptake reaction mixture was suspended in final volume of 200 μl containing pargyline (final concentration of 10 μM) and sodium ascorbate (final concentration of 0.2 mg/ml) in each well of 96-well-round-bottom-plate.
as §3, with “unlabeled NE,” for “unlabeled DA,”, “added to” for “added in”, “After 10 minutes” for “After 10-min”, “of tritium-labeled NE” for “of tritium labeled DA”, “of 12” for “of 2”, “was added,” for “was added”
as §4, with “The total uptake activity” for “The uptake activity”, “with unlabeled NE (final concentration” for “with unlabeled DA (final concentration”

Compound | melting point | IC50 [1] | IC50 [2] | IC50 [3]
Fc1cccc(N(c2ccc(C(F)(F)F)cc2)[C@H]2CCNC2)c1.O=C(O)/C=C/C(=O)O.O=C(O)/C=C/C(=O)O | 144 to 146.2 °C |  |  | 
CSc1ccc(N(c2ccccc2)[C@H]2CCNC2)cc1 (as salt: fumarate) [Example 19] | 152.9 to 155.5 °C |  |  | 
Fc1ccc(N(c2ccccc2)[C@H]2CCNC2)cc1 (as salt: fumarate) [Example 20] | 143 to 145 °C |  |  | 
Cc1ccc(N(c2ccccc2)[C@H]2CCNC2)cc1 (as salt: fumarate) [Example 22] | 141.7 to 143.8 °C |  |  | 
N#Cc1ccc(N(c2ccc(F)c(Cl)c2)[C@H]2CCNC2)cc1 (as salt: fumarate) [Example 73] | 174 to 175 °C |  |  | 
Fc1ccc(N(c2ccc3ccsc3c2)[C@H]2CCNC2)cc1 (as salt: fumarate) [Example 114] | 131.6 to 133.3 °C |  |  | 
Fc1ccc(N(c2nccs2)[C@H]2CCNC2)cc1Cl (as salt: fumarate) [Example 131] | 128 to 129.9 °C |  |  | 
Fc1ccc(N(c2ccccn2)[C@H]2CCNC2)cc1Cl (as salt: fumarate) [Example 154] | 152.4 to 154.4 °C |  |  | 
Fc1ccc(N(c2ccc(Cl)nc2)[C@H]2CCNC2)cc1Cl (as salt: fumarate) [Example 244] | 136 to 137 °C |  |  | 
Fc1ccc(N(c2ccsc2)[C@H]2CCNC2)cc1Cl (as salt: fumarate) [Example 278] | 135 to 136 °C |  |  | 
c1ccc(N(c2ccc3sccc3c2)[C@H]2CCNC2)cc1 (as salt: hydrochloride) [Example 116] | 158 to 160 °C |  |  | 
Clc1ccc(N(c2ccccn2)[C@H]2CCNC2)cc1Cl (as salt: hydrochloride) [Example 188] | 135 to 138 °C |  |  | 
Fc1ccc(N(c2ccc(N3CCNCC3)cn2)[C@H]2CCNC2)cc1Cl (as salt: hydrochloride) [Example 200] | 212 to 215 °C |  |  | 
CCN1CCN(c2ccc(N(c3ccc(F)c(Cl)c3)[C@H]3CCNC3)nc2)CC1 (as salt: hydrochloride) [Example 201] | 208 to 211 °C |  |  | 
Clc1ccc(N(c2cccnc2)[C@H]2CCNC2)cc1Cl (as salt: hydrochloride) [Example 242] | 108 to 110 °C |  |  | 
Fc1ccc(N(c2ccc3cnsc3c2)[C@H]2CCNC2)cc1Cl (as salt: hydrochloride) [Example 930] | 150 to 156 °C |  |  | 
c1ccc(N(c2ccc3sccc3n2)[C@H]2CCNC2)cc1 (as salt: hydrochloride) [Example 934] | 241.5 to 243.5 °C |  |  | 
Fc1ccc(N(c2ccc(Cl)c(Cl)c2)[C@H]2CCNC2)nc1 (as salt: hydrochloride) [Example 961] | 96 to 98 °C |  |  | 
Clc1ccc(N(c2cnccn2)[C@H]2CCNC2)cc1Cl (as salt: hydrochloride) [Example 963] | 120 to 124 °C |  |  | 
Clc1ccc(N(c2ccncc2)[C@H]2CCNC2)cc1Cl (as salt: salt) [Example 273] | 229 to 231 °C |  |  | 
CS(=O)(=O)O.CS(=O)(=O)O.Fc1ccc(N(c2cccnc2)[C@H]2CCNC2)cc1Cl [Example 7, (3-chloro-4-fluorophenyl) pyridin-3-yl-(S)-pyrrolidin-3-ylamine dimethanesulfonate] | 194 to 195 °C | 45 nM | 3 nM | 0.4 nM
Fc1ccc(N(c2ccc(-c3cnco3)cc2)[C@H]2CCNC2)cc1Cl [Example 90] | 115 to 117 °C | 4.8 nM | 1.2 nM | 0.7 nM
CC(C)(O)CN(c1ccc(F)c(Cl)c1)[C@H]1CCNC1 [Example 967] |  | 25.4 nM | 0.9 nM | 0.1 nM
Fc1ccc(N(c2ccc3ncsc3c2)[C@H]2CCNC2)cc1Cl [Example 989] |  | 5.8 nM | 0.6 nM | 0.3 nM
